In patent publication US8889671B2, “Compounds and methods for treating bacterial infections” (AstraZeneca AB, priority 2013, dated 2014):
In brackets after ≈: the same amount, converted by molar mass. Where two headings read alike, the source gives them in different places.

Experiments:
[1] = test system: variants of S. aureus and S. pyogenes ARC838; assay: Susceptibility of Example 5 serial-passage variants to comparators; assay type: cell-based, Staphylococcus aureus; Streptococcus pyogenes; settings: variants after twenty passages with Example 5
[2] = test system: 7 S. aureus strains and 1 strain of Streptococcus pyogenes; assay: Minimum bactericidal concentration (MBC); assay type: cell-based, Staphylococcus aureus; Streptococcus pyogenes; settings: 7 S. aureus strains and 1 S. pyogenes strain
[3] = test system: Neisseria gonorrhoeae; assay: MIC against 100 N. gonorrhoeae isolates, CLSI reference agar dilution; assay type: cell-based; settings: all 100 N. gonorrhoeae isolates
[4] = test system: Escherichia coli; assay: Susceptibility testing (MIC) Assay 2, broth microdilution; assay type: cell-based; settings: K12, read-out: Eco MIC
[5] = test system: Haemophilus influenzae; assay: as above; assay type: cell-based; settings: ATCC51907, Haemophilus influenzae, ATCC 51907, in vivo strain, read-out: Hin MIC
[6] = test system: Pseudomonas aeruginosa; assay: as above; assay type: cell-based; settings: PAO1, read-out: Pae MIC
[7] = test system: Klebsiella pneumoniae; assay: as above; assay type: cell-based; settings: clinical isolate, mucoid, read-out: Kpn MIC
[8] = test system: Staphylococcus aureus; assay: Susceptibility testing (MIC) Assay 1, broth microdilution; assay type: cell-based; settings: Staphylococcus aureus
[9] = test system: Streptococcus pneumoniae; assay: as above; assay type: cell-based
[10] = test system: Streptococcus pyogenes; assay: as above; assay type: cell-based; settings: Streptococcus pyogenes, Streptococcus pyrgenes, in vivo strain; read-out: Spy MIC
[11] = target: Escherichia coli DNA gyrase A/B tetramer (Escherichia coli (strain K12), UniProt P0AES4+P0AES6); assay: DNA gyrase supercoiling activity fluorescence polarisation assay; assay type: biochemical; settings: Eco Gyr FP Mean IC50, E. coli DNA gyrase supercoiling, 0.3 mM ATP
Procedure, shortened: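 Relaxed triplex-forming plasmid (130 micrograms/mL) supercoiled by 5 nM gyrase A/B tetramer in Tris-HCl pH 7.5 buffer with 4 mM MgCl2 and 0.3 mM ATP, ~30 min, ambient temperature. Quenched with 5′-BODIPY-FL triplex probe at pH 3.5; fluorescence anisotropy read after 60 min. IC50 by nonlinear regression against two control reactions.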

[12] = Neisseria gonorrhoeae, read-out: MIC50
[13] = Neisseria gonorrhoeae, read-out: MIC90
[14] = Staphylococcus aureus in vivo strain, MSQS, read-out: Sau(d) MIC
[15] = in vivo strain, MRQR, read-out: Sau(e) MIC
[16] = in vivo strain (footnote b), read-out: Spn(b) MIC
[17] = in vivo strain (footnote c), read-out: Spn(c) MIC

Compound: CN[C@H](CC(C)C)C(=O)N[C@H]1C(=O)N[C@@H](CC(N)=O)C(=O)N[C@H]2C(=O)N[C@H]3C(=O)N[C@H](C(=O)N[C@H](C(=O)O)c4cc(O)cc(O)c4-c4cc3ccc4O)[C@H](O)c3ccc(c(Cl)c3)Oc3cc2cc(c3O[C@@H]2O[C@H](CO)[C@@H](O)[C@H](O)[C@H]2O[C@H]2C[C@](C)(N)[C@H](O)[C@H](C)O2)Oc2ccc(cc2Cl)[C@H]1O [vancomycin]
- change in susceptibility of Example 5-selected variants [1]: ≤ 4 fold
- minimum bactericidal concentrations (MBCs) relative to the MIC [2]: ≤ 2 fold

Compound: C[C@H]1COc2c(N3CCN(C)CC3)c(F)cc3c(=O)c(C(=O)O)cn1c23 [levofloxacin]
- change in susceptibility of Example 5-selected variants [1]: ≤ 4 fold
- minimum bactericidal concentrations (MBCs) relative to the MIC [2]: ≤ 2 fold

Compound: CC[C@H]1OC(=O)[C@H](C)[C@@H](O[C@H]2C[C@@](C)(OC)[C@@H](O)[C@H](C)O2)[C@H](C)[C@@H](O[C@@H]2O[C@H](C)C[C@H](N(C)C)[C@H]2O)[C@](C)(O)C[C@@H](C)CN(C)[C@H](C)[C@@H](O)[C@]1(C)O [azithromycin, reference compound]
- MIC50 [3, 12]: 0.25 µg/mL (≈ 0.334 µM)
- MIC90 [3, 13]: 0.5 µg/mL (≈ 0.668 µM)

Compound: CO/N=C(\C(=O)N[C@@H]1C(=O)N2C(C(=O)O)=C(CSc3nc(=O)c(O)nn3C)CS[C@H]12)c1csc(N)n1 [ceftriaxone, reference compound]
- MIC50 [3]: 0.015 µg/mL (≈ 0.027 µM)

Compound: CO/N=C(\C(=O)N[C@@H]1C(=O)N2C(C(=O)O)=C(CSc3nc(=O)c(O)nn3C)CS[C@H]12)c1csc(N)n1 [ceftriazone, reference compound]
- MIC90 [3]: 0.06 µg/mL (≈ 0.108 µM)

Compound: CC1(C)S[C@@H]2[C@H](NC(=O)Cc3ccccc3)C(=O)N2[C@H]1C(=O)O [penicillin, reference compound]
- MIC50 [3, 12]: 2 µg/mL (≈ 5.98 µM)
- MIC90 [3, 13]: > 2 µg/mL

Compound: CN(C)[C@@H]1C(=O)C(C(N)=O)=C(O)[C@@]2(O)C(=O)C3=C(O)c4c(O)cccc4[C@@](C)(O)[C@H]3C[C@@H]12 [tetracycline, reference compound]
- MIC50 [3]: 1 µg/mL (≈ 2.25 µM)
- MIC90 [3]: 2 µg/mL (≈ 4.5 µM)

Compound: CC(=O)NC[C@H]1CN(c2ccc(N3CCOCC3)c(F)c2)C(=O)O1 [linezolid]
- change in susceptibility of Example 5-selected variants [1]: ≤ 4 fold

Compound: C[C@@H]1CN(c2noc3c(Cl)c4c(cc23)CC2(C(=O)NC(=O)NC2=O)[C@H]2[C@H](C)O[C@H](C)CN42)C(=O)O1 [Example 22]
- MIC [4]: 12 µM (≈ 6.05 µg/mL)
- MIC [5]: 0.78 µM (≈ 0.393 µg/mL)
- MIC [6]: > 200 µM
- MIC [7]: 200 µM (≈ 101 µg/mL)
- MIC [8, 14]: < 0.2 µM
- MIC [8, 15]: 0.78 µM (≈ 0.393 µg/mL)
- MIC ([8]; serum, read-out: Sau(f) MIC): 0.78 µM (≈ 0.393 µg/mL)
- MIC [9, 16]: 0.39 µM (≈ 0.197 µg/mL)
- MIC [9, 17]: 0.39 µM (≈ 0.197 µg/mL)
- MIC [10]: 0.39 µM (≈ 0.197 µg/mL)
- IC50 [11]: 210 nM

Compound: C=CC1=C(C(=O)O)N2C(=O)[C@@H](NC(=O)/C(=N\OCC(=O)O)c3csc(N)n3)[C@H]2SC1 [cefixime, reference compound]
- MIC50 [3]: 0.03 µg/mL (≈ 0.0662 µM)
- MIC90 [3]: 0.06 µg/mL (≈ 0.132 µM)

Compound: C[C@@H]1CN2c3c(cc4c(N5C(=O)OC[C@@H]5c5ccccn5)noc4c3F)CC3(C(=O)NC(=O)NC3=O)[C@H]2[C@H](C)O1 [Example 56, (2R,4S,4aS)-11-fluoro-2,4-dimethyl-8-((S)-2-oxo-4-(pyridin-2-yl)oxazolidin-3-yl)-2,4,4a,6-tetrahydro-1H,1′H-spiro[isoxazolo[4,5-g][1,4]oxazino[4,3-a]quinoline-5,5′-pyrimidine]-2′,4′,6′(3′H)-trione]
- MIC [4]: > 200 µM
- MIC [5]: 3.1 µM (≈ 1.71 µg/mL)
- MIC [6]: > 200 µM
- MIC [7]: > 200 µM
- MIC [8, 14]: 3.1 µM (≈ 1.71 µg/mL)
- MIC [8, 15]: 6.2 µM (≈ 3.41 µg/mL)
- MIC ([8]; serum, read-out: Sau(f) MIC): 25 µM (≈ 13.8 µg/mL)
- MIC [9, 16]: 6.2 µM (≈ 3.41 µg/mL)
- MIC [9, 17]: 6.2 µM (≈ 3.41 µg/mL)
- MIC [10]: 3.1 µM (≈ 1.71 µg/mL)
- IC50 [11]: 1900 nM

Compound: C[C@@H]1CN2c3c(cc4c(N5C[C@H](CN=[N+]=[N-])OC5=O)noc4c3F)CC3(C(=O)NC(=O)NC3=O)[C@H]2[C@H](C)O1 [Example 44, (2R,4S,4aS)-8-[(5R)-5-(Azidomethyl)-2-oxo-1,3-oxazolidin-3-yl]-11-fluoro-2,4-dimethyl-1,2,4,4a-tetrahydro-2′H,6H-spiro[1,4-oxazino[4,3-a][1,2]oxazolo[4,5-g]quinoline-5,5′-pyrimidine]-2′,4′,6′(1′H,3′H)-trione]
- MIC [4]: 50 µM (≈ 26.4 µg/mL)
- MIC [5]: 0.78 µM (≈ 0.412 µg/mL)
- MIC [6]: > 200 µM
- MIC [7]: > 200 µM
- MIC [8, 14]: 0.78 µM (≈ 0.412 µg/mL)
- MIC [8, 15]: 3.1 µM (≈ 1.64 µg/mL)
- MIC ([8]; serum, read-out: Sau(f) MIC): 3.1 µM (≈ 1.64 µg/mL)
- MIC [9, 16]: 0.78 µM (≈ 0.412 µg/mL)
- MIC [9, 17]: 1.6 µM (≈ 0.846 µg/mL)
- MIC [10]: 0.78 µM (≈ 0.412 µg/mL)
- IC50 [11]: 530 nM

Compound: C[C@@H]1CN2c3c(cc4c(N5C(=O)OC[C@@H]5c5ccncc5)noc4c3F)CC3(C(=O)NC(=O)NC3=O)[C@H]2[C@H](C)O1 [Example 58, (2R,4S,4aS)-11-fluoro-2,4-dimethyl-8-((S)-2-oxo-4-(pyridin-4-yl)oxazolidin-3-yl)-2,4,4a,6-tetrahydro-1H,1′H-spiro[isoxazolo[4,5-g][1,4]oxazino[4,3-a]quinoline-5,5′-pyrimidine]-2′,4′,6′(3′H)-trione]
- MIC [4]: > 200 µM
- MIC [5]: 6.2 µM (≈ 3.41 µg/mL)
- MIC [6]: > 200 µM
- MIC [7]: > 200 µM
- MIC [8, 14]: 12 µM (≈ 6.61 µg/mL)
- MIC [8, 15]: 50 µM (≈ 27.5 µg/mL)
- MIC ([8]; serum, read-out: Sau(f) MIC): 50 µM (≈ 27.5 µg/mL)
- MIC [9, 16]: 50 µM (≈ 27.5 µg/mL)
- MIC [9, 17]: 25 µM (≈ 13.8 µg/mL)
- MIC [10]: 12 µM (≈ 6.61 µg/mL)
- IC50 [11]: 1500 nM

Compound: C[C@@H]1CN2c3c(cc4c(N5C(=O)OC[C@@H]5c5ncnn5C)noc4c3F)CC3(C(=O)NC(=O)NC3=O)[C@H]2[C@H](C)O1 [Example 68, (2R,4S,4aS)-11-Fluoro-2,4-dimethyl-8-((S)-4-(1-methyl-1H-1,2,4-triazol-5-yl)-2-oxooxazolidin-3-yl)-2,4,4a,6-tetrahydro-1H,1′H-spiro[isoxazolo[4,5-g][1,4]oxazino[4,3-a]quinoline-5,5′-pyrimidine]-2′,4′,6′(3′H)-trione]
- MIC [4]: 200 µM (≈ 111 µg/mL)
- MIC [5]: 1.6 µM (≈ 0.887 µg/mL)
- MIC [6]: > 200 µM
- MIC [7]: > 200 µM
- MIC [8, 14]: 12 µM (≈ 6.65 µg/mL)
- MIC [8, 15]: 25 µM (≈ 13.9 µg/mL)
- MIC ([8]; serum, read-out: Sau(f) MIC): 12 µM (≈ 6.65 µg/mL)
- MIC [9, 16]: 3.1 µM (≈ 1.72 µg/mL)
- MIC [9, 17]: 6.2 µM (≈ 3.44 µg/mL)
- MIC [10]: 3.1 µM (≈ 1.72 µg/mL)
- IC50 [11]: 220 nM
